These are literature values, as cited in patent US20070281020A1, “PHARMACEUTICAL COMPOSITIONS FOR SUSTAINED RELEASE OF PHENYLEPHRINE” (priority 2006, published 2007).

The conditions of this data set: active metabolite of loratadine.

Take `Clc1ccc2c(c1)CCc1cccnc1C2=C1CCNCC1` [desloratadine]: the “half-life (t1/2)” value is 15 to 19 h.
